# Source: US6433012B1, “Method for inhibiting inflammatory disease” (Large Scale Biology Corp., priority 1998, dated 2002)
# Entries after “also recorded” stand apart in the source; their conditions may differ.
# Tests used:
# [1] = tested on: MCF-7 human breast carcinoma cells; assay: Chromosome condensation / prometaphase arrest; type: cell-based; conditions: 1 μM for 24 h
# [2] = tested on: TNF-α mRNA in murine macrophage PU5-1.8 cell line; assay: TNF-α mRNA in LPS-stimulated macrophages (Northern blot); type: cell-based
# Description: The murine macrophage PU5-1.8 cell line was purchased from the American Type Culture Collection (ATCC, Rockville, Md.). Cells were grown in DMEM medium supplemented with […], 0.1 mM nonessential amino acids, 2 mM glutamine and 5% fetal bovine serum (Life Technologies, Staten Island, N.Y.). Cells were maintained in a humidified atmosphere of 5% CO2-95% air at 37° C. Cells were passages twice weekly by firmly tapping the side of the flask to dislodge the adherent cells. Both nonadherent and adherent cells were passages. Exponentially growing cells were seeded at 5×10 ^5/mL, 4mL per 60-mm dish 24 h prior to the experiment. Test compounds were delivered in 1 mL volumes of the medium added to each dish at the start of the experiment. All dishes were incubated at 37° C. in 5% CO2-95% air for 3 h.
# Total RNA was isolated by the guanidinium-cesium chloride method as described in N. S. Waleh, J. Gallo, T. D. Grant, B. J. Murphy, R. H. Kramer and R. M. Sutherland. (1994) “Selective downregulation of integrin receptors in spheroids of squamous cell carcinoma” Cancer Res., 54:838-843. Five to 10 μg of total RNA was electrophoresed in 1% agarose gels containing 6% formaldehyde. Following electrophoresis, gels were stained with ethidium bromide to visualize the positions of 28S and 18S RNA. The RNAs were then transferred to nylon membranes (Amersham Hybond N) by capillary blotting and fixed to the filter by exposure to UV light. The blots were probed with ^32P-labeled cDNA sequences of human TNF-α obtained from the American Type Culture Collection (ATCC). The TNF-α cDNA was a 1.1 kb PstI fragment of plasmid pE4 in E. coli MM294 (ATCC 39894). Hybridizations were carried out at 42° C. in 50% formamide, 5×SSC, 5×Denhardt's solution, 0.1% SDS, and 0.3 mg/mL salmon sperm DNA. Filters were washed by 1×SSC, 0.1% SDS, twice at room temperature for 15 min and once at 55° C. in 0.1×SSC, 0.1% SDS for 1 hr. Filters were exposed to X-ray film at −70° C. using an intensifying screen (Coronex Hi-Plus).
# Hybridized bands were quantified by analyzing the images obtained by using a video densitometer (Applied Imaging Corporation, Santa Clara, Calif.). Film densities were calibrated using an optical-density wedge.
# [3] = tested on: R3230Ac rat mammary carcinoma; assay: Dorsal skin-fold window chamber assay; type: in vivo, Fischer 344 rats
# Source text: Details of the design and the surgical technique used for the rat dorsal skin-fold window chamber assay have been described elsewhere (Pappenfuss et al., Microvasc. Res. 18:311-318 (1979)). Briefly, the anatomical midline of the dorsal skin flap of an anesthetized rat was sutured to a pair of C-clamps and a skin-fold was retracted from the body surface by hanging the C-clamp on a stage. A circle of 1 cm of skin on each side of the skin-fold was surgically removed leaving two layers of fascia containing a few microvessels. After a pair of window frames was mounted, a piece of a R3230Ac rat mammary carcinoma (about 0.5 mm^3) from a donor rat was implanted onto the fascia in the window and the chamber was sealed with glass cover slips. On the fourth postoperative day, all tumor-containing windows were evaluated using an intravital microscope. The viability of the tumor implants, vasculature morphology, and blood flow in each window were crudely scored with 1-3 points assigned to each category. Only those windows with more than 6 points on this scale were included for further study. […] Tumor-window-bearing animals were randomly divided into treated and control groups that were stratified by the window scores. […] On day 12, the tumor windows were evaluated for the effect of the drug on tumor growth and vascularization. Images of whole tumors and tumor vasculature were obtained from four peripheral tumor areas, three to four central tumor areas, and from four areas in the surrounding granulating tissue, as described above. Again, measurements of various image parameters were made by an investigator who was unaware of the treatment protocol. Using the image analysis software, the cumulative length of all vessels in focus in each image was measured. Vascular length densities were calculated by dividing the total vessel length in a frame by the area of the frame. The diameters of all vessels in each image at high magnification were also measured and averaged.
# All data were reported as means +/− the SEM for each group. The statistical significance of differences between treated and control groups was determined by using an unpaired t-test or the Mann-Whitney U-test. Statistically significant differences were defined as having a p<0.05.
# [4] = oral, postoperative days 5 to 11, no significant difference to controls
smiles,measurement,setting,value
"COC(=O)c1cc(I)c(Oc2ccc(OC)cc2)c(I)c1 [BTO-956, methyl-3,5-diiodo-4-(4′-methoxyphenoxy)benzoate]",chromosome condensation (prometaphase arrest),[1],A large fraction of these cells showed chromosome condensation characteristic of a prometaphase arrest
same,inhibition of TNF-α mRNA accumulation,"[2]; 10 μM added to LPS (100 ng/mL) treated cultures, 3 h",61%
same,"effect on TNF-α mRNA expression, compound only","[2]; 10 μM, without LPS, 3 h",no effect
same,total RNA integrity,[2]; cells treated with different concentrations,intact
same,"amounts of TNF-α mRNA, concentration-effect relationship",[2]; various concentrations with LPS for 3 h,declined with the increasing concentrations
same,reduction of tumor areas compared with controls,"[3]; oral, postoperative days 5 to 11",more than 50%
same,vascular diameter in central tumor areas,[3]; [4],35.84±9.63 μm
same,vascular diameter in peripheral tumor areas,[3]; [4],32.19±4.46 μm
same,vascular diameter in surrounding areas,[3]; [4],21.52±3.33 μm
same,vascular length density in central tumor areas,[3]; [4],3.26±0.81 mm/mm^2
same,vascular length density in surrounding granulating tissue,[3]; [4],8.71±1.05 mm/^2
same,body weight loss or behavioral changes / toxic effects,"[3]; tumor-bearing rats, oral 500 mg/kg, up to seven days, 500 mg/kg",No significant body weight loss or behavioral changes; also recorded: No serious toxic effects
